In patent publication US20080160509A1, “ASSAYS FOR PREDICTING AND ASSESSING PREDISPOSITION TO MALE PATTERN BALDNESS” (priority 2006, published 2008):

How the values were obtained:
[1] = biological target: sex hormone binding globulin (SHBG) (Homo sapiens, UniProt P04278); settings: ratio versus testosterone; cited from earlier work
[2] = test system: bald subject (Norwood Level VII); assay: Antiviral agent and hair growth study in a bald subject; type: in vivo, human
Source text: A bald subject (Norwood Level VII) who routinely gets fever blisters volunteered to take place in a study to see if the topical application and oral consumption of antiviral drugs would result in hair growth. The individual lacks any hairs on the top of their head. The participant was instructed to cleanse their scalp twice daily with a liquid cleanser using a sonic skincare brush (Clarisonic®). After cleansing topical acyclovir (5%) was applied. The subject is not a candidate for any of the FDA-approved hair loss medications because of a lack of vellus hairs.
After approximately four weeks of treatment, the participant was given valacyclovir (500 mg) instead of oral acyclovir because of potential acyclovir resistance. In addition, the concentration of topical acyclovir was increased to 10%.
The fact that vellus hair formation occurred and converted to pigmented hairs is highly unexpected in a participant with Norwood Level VII baldness.

Chain of sex hormone binding globulin (SHBG) (P04278 30-402): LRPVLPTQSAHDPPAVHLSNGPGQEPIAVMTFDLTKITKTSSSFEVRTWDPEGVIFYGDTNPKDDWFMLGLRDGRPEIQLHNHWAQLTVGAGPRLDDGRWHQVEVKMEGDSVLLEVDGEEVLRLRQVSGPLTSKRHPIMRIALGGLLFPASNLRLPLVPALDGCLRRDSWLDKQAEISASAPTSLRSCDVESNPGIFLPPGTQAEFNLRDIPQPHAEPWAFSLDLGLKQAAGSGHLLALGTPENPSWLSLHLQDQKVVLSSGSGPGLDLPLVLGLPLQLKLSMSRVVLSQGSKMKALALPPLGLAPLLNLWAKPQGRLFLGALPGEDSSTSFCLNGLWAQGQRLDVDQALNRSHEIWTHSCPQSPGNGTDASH

## C[C@]12CCC(=O)C[C@@H]1CC[C@@H]1[C@@H]2CC[C@]2(C)[C@@H](O)CC[C@@H]12 [DHT, 5α-dihydrotestosterone]
[1]
  binding affinity for SHBG relative to testosterone: at least three times

## Nc1nc2c(ncn2COCCO)c(=O)[nH]1 [acyclovir]
[2]; after 16 weeks of treatment, topical acyclovir 10% plus oral valacyclovir (500 mg)
  conversion of vellus hairs to pigmented hairs: some of the vellus hairs converted to pigmented hairs
[2]; after 20 weeks, topical acyclovir 10% plus oral valacyclovir (500 mg)
  hair lengthening: pigmented and unpigmented vellus hairs continued to lengthen
[2]; at 12 weeks, topical acyclovir increased to 10% plus oral valacyclovir (500 mg) from about week 4
  hair growth on scalp: long, unpigmented vellus hairs were visible on the scalp
[2]; human, in vivo
  oral lesions: marked increase in oral lesions
[2]; topical acyclovir (5%) after twice daily scalp cleansing, after two weeks of treatment, one person, Norwood Level VII
  hair growth on scalp noted by participant: small vellus hairs
